Measured values from patent publication US10335382B2, “Use of hydrogen sulfide synthesis inhibitors for cancer therapy” (THE BOARD OF REGENTS OF THE UNIVERSITY OF TEXAS SYSTEM, priority 2013, dated 2019).
Where two headings read alike, the source gives them in different places.

Columns and labels:
CBS = target: T1, CBS (Homo sapiens, UniProt P35520); parameters: These studies used full-length human CBS enzyme; made in house; host or cells: E. coli BL21 (DE3) Codon Plus; conditions: cited from earlier work
T1 sequence (P35520 1-551): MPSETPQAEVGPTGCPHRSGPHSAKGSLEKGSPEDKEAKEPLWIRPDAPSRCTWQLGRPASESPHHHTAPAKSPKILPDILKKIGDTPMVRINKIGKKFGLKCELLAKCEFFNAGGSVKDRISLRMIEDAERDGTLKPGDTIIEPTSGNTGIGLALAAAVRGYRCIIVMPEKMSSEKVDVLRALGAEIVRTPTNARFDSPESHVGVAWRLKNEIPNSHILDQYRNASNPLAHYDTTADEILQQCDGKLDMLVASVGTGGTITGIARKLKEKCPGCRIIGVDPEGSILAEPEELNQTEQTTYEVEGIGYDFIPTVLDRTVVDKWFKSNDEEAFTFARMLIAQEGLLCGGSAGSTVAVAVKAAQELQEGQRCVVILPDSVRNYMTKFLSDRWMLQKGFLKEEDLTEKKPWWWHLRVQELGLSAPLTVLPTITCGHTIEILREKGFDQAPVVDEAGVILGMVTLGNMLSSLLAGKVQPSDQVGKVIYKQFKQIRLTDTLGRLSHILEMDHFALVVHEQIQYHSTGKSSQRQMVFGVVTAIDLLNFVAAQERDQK

HCT116 tumor xenografts = assay: HCT116 tumor xenograft in nude mice; format: in vivo, Nu/nu Balb/C female mice; conditions: AOAA 9 mg/kg/day s.c.
Procedure: Nu/nu Balb/C female mice (8-10 weeks) were injected subcutaneously in the right and left dorsum (10^6 cells/side with HCT-116 cells). One week later, the mice were randomized and subcutaneous injections of phosphate buffered saline (PBS) or AOAA (9 mg/kg/day) were performed 6 days/week. Tumor diameters were measured transcutaneously using calipers and tumor volumes were calculated using the formula V=(π/6)hd^2. T-test comparisons of the tumor volumes and final weights at harvest were performed. Xenotrials with patient-derived xenografts (PTX) were performed on nu/nu mice implanted subcutaneously with a piece of Passage 2 tumor measuring 2-5 mm^3 each. When a small palpable tumor was evident at 7-10 days, the mice with tumor take were randomized and subjected to subcutaneous injection of vehicle or AOAA (9 mg/kg/day) 6 days/week. Specimens were fixed with 10% formalin and embedded in paraffin. 5 μm sections were stained with hematoxylin and eosin. Each in vivo experiment was repeated at least twice.
Tissue preparation, immunostaining of CD31, and evaluation of microvessel density with the Chakley reticle was performed as described (Chao et al. (1996) Cancer Res. 56:4811-19).
Nu/nu Balb/c female mice (8-10 weeks) were injected subcutaneously in the right and left dorsum (10^6 cells/side with HCT116 cells). One week later, the mice were randomized and subcutaneous injection of phosphate buffered saline (PBS control) or YD2-51 (0.1, 0.5 or 1 mg/kg) was performed 6 days/week. Tumor volumes and final weights at harvest (post-tumor injection Day 28) were performed and tumor weight/animal weight ratios calculated.

HCT116 colon cancer cell = HCT116 colon cancer cell proliferation (xCELLigence); format: cell-based, human; conditions: Homo sapiens, HCT-116
Procedure: Cellular proliferation assays are conducted in HCT116 CRC cells in vitro, using the Roche XCelligence method. Concentration-response curves with the various AOAA analogs are prepared (concentration range: 1, 3, 10, 100, 300 and 600 μM). AOAA is used as the reference control, which, according to preliminary data, has an IC50 of approximately 300 μM. Control proliferation studies in the non-carcinogenic colonic epithelial cell line NCM356 are used to confirm cancer-cell selectivity. Since the NCM356 cells contain low levels of CBS, based on previous studies it is expect that AOAA (and its prodrugs) will only exert modest antiproliferative effects in these cells. Proliferation-inhibitory effects of the AOAA prodrugs in NCM356 cells indicate CBS-independent pharmacological actions. A collection of human colorectal tumor tissue samples (and surrounding non-cancerous tissue) are used to test the conversion of the AOAA prodrugs to AOAA in a number of cancer samples.
Cellular migration and invasion assays were performed as described (Chao et al. (1996) Cancer Res. 56:4811-19). Briefly, 10^5 cells were suspended in serum-free media containing 0.1% BSA and then added to 6.5 mm Transwell chambers ([…]) uncoated (migration assay) or coated with a thin layer (45 μl) of growth factor reduced matrigel (cell invasion assay). Cells were allowed to migrate toward the bottom chamber containing fibroblast (NIH-3T3 cells) conditioned media at 37° C. for 6 or 24 h for cell migration and invasion, respectively. Migrated and invaded cells were then fixed in Carson's fixative, stained in 0.33% toluidine blue and quantified by visual counting. For the HCT116-EAhy926 co-culture experiment, the cancer cell line was grown to confluence in the bottom wells of the transwell chambers and then endothelial cell migration was assessed (Coletta et al. (2012) Proc Natl Acad Sci USA. 109:9161-66). For assessment of colon cell proliferation, the xCELLigence system (Roche) was used (Szabo and Papapetropoulos (2011) Br J Pharmacol. 164:853-65).
For assessment of cell proliferation, the xCELLigence system (Roche) was used. Briefly, HCT116 cells were cultured until approximately 70% confluence. Cells were then detached by Trypsin-EDTA and resuspended in fresh culture media at a concentration of 30,000 cells/ml. 200 μl of cell suspension was added to each well (6,000 cells/well) of a E-plate 96, a specially designed 96-well microtiter plate containing interdigitated microelectrodes to non-invasively monitor the cell proliferation by measuring the relative change in the electrical impedance of the cell monolayer, a unitless parameter named cell index (CI). Cells were then treated with YD02-51 and proliferation was monitored for 48 hours.

NOCC(=O)O [AOAA, aminooxyacetic acid]
concentrations exerting inhibitory effects on human recombinant CBS (CBS): low micromolar concentrations | rate of HCT116 xenograft growth (HCT116 tumor xenografts; 6 days/week): significantly slowed | tumor size and weight at harvest (HCT116 tumor xenografts; 6 days/week): reduced size and weight | plasma concentration of H2S (HCT116 tumor xenografts; tumor-bearing mice): reduction | inhibition at 300 µM (HCT116 colon cancer cell; 300 μM, HCT116): 21% | IC50 (HCT116 colon cancer cell; read-out: IC50 (μM), inhibition of HCT116 colon cancer cell proliferation): 1780 µM | IC50 (HCT116 colon cancer cell; reference control, preliminary data, XCelligence, read-out: IC50, HCT116 proliferation (preliminary data)): ~300 µM
